From patent US9439897B2, “Use of psoralen derivatives and combination therapy for treatment of cell proliferation disorders” (IMMUNOLIGHT, LLC, priority 2014, dated 2016)

What was measured:
ErbB2 = assay: Western blot analysis of ErbB2 signaling in ErbB2+ breast cancer cells; format: cell-based, human
Description: (§1) Whole cell extracts were prepared by scraping cells off petri dishes, washing cell pellets 2× in phosphate buffered saline (PBS), and then re-suspending pellets in two-packed-cell volumes of RIPA buffer (150 mM NaCl, 50 mM Tris-HCl, pH 7.5, 0.25% (w/v) deoxycholate, 1% NP-40, 5 mM sodium orthovanadate, 2 mM sodium fluoride, and a protease inhibitor cocktail). Protein concentrations were determined using a modification of the Bradford method (Bio-Rad Labs, Hercules, Calif.). For Western blot analysis, equal amounts of proteins (25 to 50 μg) were resolved by either 7.5% or 4-15% gradient SDS polyacrylamide gel electrophoresis under reducing conditions as previously described. Proteins were transferred to nitrocellulose membranes and probed with primary antibodies specific for proteins of interest. After extensive washing, membranes were incubated with a secondary IRDye 800 conjugated anti-rabbit or mouse IgG, or Alexa Fluor 680 anti-rabbit IgG and proteins were visualized using the LI-COR Odyssey Infrared Imaging System (LI-COR, Inc., Lincoln, Nebr.).

[1] = tested on: ErbB2+ breast cancer cell lines (BT474; SKBR3); assay: Cell growth and viability assay (WST-1); format: cell-based, human
Description: (§2) UV irradiation was carried out in 6 or 96 well plate format in a UV Stratalinker 1800 (Statagene, LA Jolla, Calif.) at the UV doses indicated in the figures. Cell growth and viability assays were performed in a 96-well plate format in a final volume of 100 μl/well using the cell proliferation reagent WST-1 from Roche Diagnostics (Mannheim, Germany), as previously described. Details of the apoptosis assay have been previously described. Briefly, cells were treated in 12-well plates with 8MOP, UV irradiation, or lapatinib at the treatment conditions indicated in the Figure legends. Cells were harvested with trypsin-EDTA, and 5000 cells in final volume of 50 μl were sampled in 96-well microplates. Cells were directly stained with annexin V-PE and nexin 7-AAD in 1× Nexin Buffer in a 200 μl final reaction volume. After incubating at room temperature for 20 min, the reaction samples were analyzed in the Guava PCA-96-system (Guava Technology Inc. Hayward, Calif.).

[2] = tested on: ErbB2+ breast cancer cells (BT474; SKBR3); assay: Apoptosis assay (annexin V-PE / 7-AAD); format: cell-based, human
Description: as §2

[3] = tested on: EGFR, ErbB3, Akt, PARP in rBT474 and rSKBR3; assay: Western blot analysis in lapatinib resistant cells; format: cell-based, human
Description: as §1

[4] = tested on: human foreskin fibroblast cell line (HFF); assay: Cell growth and viability assay (WST-1); format: cell-based; details: PUVA, 2.5 and 5 μM 8MOP; compared with ErbB2+ lines
Description: as §2

MCF7 cells = assay: Cell growth and viability assay (WST-1); format: cell-based, human; details: PUVA, 2.5 and 5 μM 8MOP; compared with ErbB2+ lines
Description: as §2

T47D cells = assay: Growth and apoptosis in T47D and p85ErbB2 transfected T47D cells; format: cell-based, human
Description: as §2
(§3) The c-terminal fragment (p85^ErbB2) was generated based on ErbB2 open reading frames and sub-cloned into the pcDNA 3.1 (+) as previously described. HER2 negative T47D breast cancer cells were transfected with the p85 expressing vector using the Lipofectamine™ 2000 Reagent from Invitrogen (Carlsbad, Calif.) as previously described. […]

p85^ErbB2 = assay: Western blot of phospho-p85ErbB2 in stably transfected T47D cells; format: cell-based, human; details: p85 expressing T47D cells; 5 μM lapatinib or 5 μM 8MOP 4 hr, then UV irradiation
Description: as §1, §3

rBT474 and rSKBR3 cells = assay: Cell growth and viability assay in lapatinib resistant cells; format: cell-based, human; details: PUVA; cells maintained in 1 μM lapatinib; dose-dependent
From the text: ErbB2+(BT474; SKBR3) and ErbB2 negative (MCF-7; T47D) human breast cancer cell lines, and the human foreskin fibroblast (HFF) cell line were obtained from the American Type Culture Collection (Manassas, Va.). Lapatinib resistant breast cancer cells (rBT474; rSKBR3) were generated and maintained in culture as previously described. Cells were maintained in RPMI-1640 supplemented with 10% fetal bovine serum and L-glutamine from GIBCO (Grand Island, N.Y.) growing in a humidified atmosphere of 5% CO2 at 37° C. IRDye 800 conjugated affinity purified anti-rabbit IgG and anti-mouse IgG were from Rockland (Gilbertsville, Pa.). Alexa Fluor 680 goat anti-rabbit IgG were purchased from Molecular Probes (Eugene, Oreg.). Anti-PARP (Poly (ADP-ribose) Polymerase) monoclonal antibody was from BD PharMingen (San Jose, Calif.). 8-Methoxypsoralen (8MOP) and the 4G10 anti-phosphotyrosine (p-tyr) antibody were purchased from Sigma-Aldrich (St. Louis, Mo.). Monoclonal antibodies to c-ErbB2 and EGFR were purchased from Neo Markers (Union City, Calif.). […]
UV irradiation was carried out in 6 or 96 well plate format in a UV Stratalinker 1800 (Statagene, LA Jolla, Calif.) at the UV doses indicated in the figures. […] After incubating at room temperature for 20 min, the reaction samples were analyzed in the Guava PCA-96-system (Guava Technology Inc. Hayward, Calif.).

Cc1c2occc2cc2c1oc(=O)c1cnccc12 [7-methylpyridopsoralen]
phosphorylated and total ErbB2 protein expression (ErbB2; upon photo-activation (UVA irradiation)): inhibition | growth and viability of ErbB2+ breast cancer cells ([1]; upon photo-activation (UVA irradiation), 72 hr, BT474 and SKBR3): significantly inhibited

COc1c2occc2cc2ccc(=O)oc12 [8MOP, 8-Methoxypsoralen]
apoptosis ([2]; PUVA: 8MOP + UVA irradiation (2J), 72 hr): induction of apoptosis | PARP cleavage product ([3]; PUVA-treated lapatinib resistant tumor cells): increased | expression of phosphorylated EGFR (Y992), ErbB3 (Y1197) and Akt (T308) ([3]; PUVA-treated rBT474 and rSKBR3): reduction | total EGFR and ErbB3 protein expression ([3]; PUVA-treated rBT474 and rSKBR3): markedly reduced | ErbB2 signaling (ErbB2; 8MOP alone, no UV irradiation): relatively little effect | phosphorylated forms of Akt and Erk1/2 (ErbB2; PUVA (8MOP + UVA)): inhibited | steady-state protein levels of phosphorylated ErbB2 (ErbB2; PUVA (8MOP + UVA), dose-dependent): reduced | total ErbB2 protein levels (ErbB2; higher doses of PUVA therapy): reduced | growth and viability of HFF cells [4]: relatively less effect | cell viability ([1]; 8MOP alone, no UV irradiation): relatively little effect | growth and viability of ErbB2+ breast cancer cell lines ([1]; PUVA: 8MOP 4 hr pre-treatment, UVA irradiation (2J), 72 hr, dose-dependent): significantly inhibited | growth and viability of MCF7 cells (MCF7 cells): relatively less effect | antitumor effect (growth) (T47D cells; T47D cells transfected with empty vector alone): antitumor effect | tumor cell apoptosis (T47D cells; p85 expressing T47D cells): triggering tumor cell apoptosis | p85ErbB2 phosphorylation (p85^ErbB2): markedly inhibited | tumor cell growth and viability (rBT474 and rSKBR3 cells): significantly reduced

CS(=O)(=O)CCNCc1ccc(-c2ccc3ncnc(Nc4ccc(OCc5cccc(F)c5)c(Cl)c4)c3c2)o1 [lapatinib]
p85ErbB2 phosphorylation (p85^ErbB2): not inhibited

CCOc1cc2ncc(C#N)c(Nc3ccc(OCc4ccccn4)c(Cl)c3)c2cc1NC(=O)/C=C/CN(C)C [neratinib]
apoptosis in ErbB2+ breast cancer cells ([2]; neratinib at sub-lethal doses combined with PUVA): significantly increased | total ErbB2 and ErbB3 protein expression (ErbB2; neratinib in combination with UVA irradiation alone, more pronounced in SKBR3): further loss | p-Akt (S473) expression (ErbB2; neratinib treatment alone): loss | total ErbB2 and ErbB3 protein levels (ErbB2; neratinib treatment alone): marked reduction | cell viability ([1]; combination of 8-MOP, UVA irradiation and neratinib, each at sub-lethal doses): significantly enhanced inhibition
